Test results as given in patent US7834023B2 (Portola Pharmaceuticals, Inc., priority 2006, dated 2010).

Experiments:
[1] = test system: human platelet-rich plasma (PRP); test: PRP assay: inhibition of ADP-mediated platelet aggregation in vitro; format: cell-based; settings: ADP-induced aggregation
Experimental: The effect of testing the compound according to the invention on ADP-induced human platelet aggregation was assessed in a 96-well microtiter assay (see generally the procedures in Jantzen, H. M. et al. (1999) Thromb. Hemost. 81:111-117) or standard cuvette light transmittance aggregometry using either human platelet-rich plasma (PRP) or human washed platelets.
For preparation of human platelet-rich plasma for aggregation assays, human venous blood was collected from healthy, drug-free volunteers into 0.38% sodium citrate (0.013 M, pH 7.0 final). Platelet-rich plasma (PRP) is prepared by centrifugation of whole blood at 160×g for 20 minutes at room temperature. The PRP layer is removed, transferred to a new tube, and the platelet count is adjusted, if necessary, to achieve a platelet concentration of ˜3×10^8 platelets/ml using platelet-poor plasma (PPP). PPP is prepared by centrifugation of the remaining blood sample (after removal of PRP) for 20 minutes at 800×g. This preparation of PRP can subsequently be used for aggregation assays in either a 96-well plate or standard cuvette aggregometry.
For cuvette light transmittance aggregation assays, serial dilutions (1:3) of test compounds were prepared in 100% DMSO in a 96 well V-bottom plate (final DMSO concentration in the cuvette was 0.6%). The test compound (3 μl of serial dilutions in DMSO) was preincubated with PRP for 30-45 seconds prior to initiation of aggregation reactions, which were performed in a ChronoLog aggregometer by addition of agonist (5 or 10 μM ADP) to 490 μL of PRP at 37° C. In some cases, light transmittance aggregometry was performed using 490 μL of washed platelets (prepared as described above) at 37° C., and aggregation was initiated by addition of 5 μM ADP and 0.5 mg/ml human fibrinogen (American Diagnostics, Inc., Greenwich, Conn.). The aggregation reaction is recorded for ˜5 min, and maximum extent of aggregation is determined by the difference in extent of aggregation at baseline, compared to the maximum aggregation that occurs during the five minute period of the assay. Inhibition of aggregation was calculated as the maximum aggregation observed in the presence of inhibitor, compared to that in the absence of inhibitor. IC50s were derived by non-linear regression analysis using the Prism software (GraphPad, San Diego, Calif.).
Inhibition of ADP-dependent aggregation was also determined in 96-well flat-bottom microtiter plates using a microtiter plate shaker and plate reader similar to the procedure described by Frantantoni et al., Am. J. Clin. Pathol. 94, 613 (1990). All steps are performed at room temperature. For 96-well plate aggregation using platelet-rich plasma (PRP), the total reaction volume of 0.2 ml/well includes 180 μl of PRP (˜3×10^8 platelets/ml, see above), 6 μl of either serial dilution of test compounds in 20% DMSO or buffer (for control wells), and 10 μl of 20×ADP agonist solution (100 μM). The OD of the samples is then determined at 450 nm using a microtiter plate reader (Softmax, Molecular Devices, Menlo Park, Calif.) resulting in the 0 minute reading. The plates are then agitated for 5 min on a microtiter plate shaker and the 5 minute reading is obtained in the plate reader. Aggregation is calculated from the decrease of OD at 450 nm at t=5 minutes compared to t=0 minutes and is expressed as % of the decrease in the ADP control samples after correcting for changes in the unaggregated control samples. IC50s were derived by non-linear regression analysis.

[2] = molecular target: T1, P2Y12 receptor (Homo sapiens, UniProt Q9H244); test: platelet ADP receptor binding assay (ARB): inhibition of [3H]2-MeS-ADP binding to platelets; settings: [3H]2-MeS-ADP binding to apyrase-washed human platelets
T1 construct: endogenous in cells; host or cells: human platelets (outdated from blood banks or fresh), apyrase-washed, whole
Summary of the method: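 Apyrase-washed human platelets (1×10^8 per well) were preincubated 5 min with serial compound dilutions in Hepes-Tyrode's/0.1% BSA/0.6% DMSO, then incubated 15 min at room temperature with 1 nM [3H]2-MeS-ADP. Filter-bound radioactivity gave specific binding (nonspecific: 10 μM 2-MeS-ADP), and IC50s came from non-linear regression.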

T1 sequence (Q9H244 whole entry): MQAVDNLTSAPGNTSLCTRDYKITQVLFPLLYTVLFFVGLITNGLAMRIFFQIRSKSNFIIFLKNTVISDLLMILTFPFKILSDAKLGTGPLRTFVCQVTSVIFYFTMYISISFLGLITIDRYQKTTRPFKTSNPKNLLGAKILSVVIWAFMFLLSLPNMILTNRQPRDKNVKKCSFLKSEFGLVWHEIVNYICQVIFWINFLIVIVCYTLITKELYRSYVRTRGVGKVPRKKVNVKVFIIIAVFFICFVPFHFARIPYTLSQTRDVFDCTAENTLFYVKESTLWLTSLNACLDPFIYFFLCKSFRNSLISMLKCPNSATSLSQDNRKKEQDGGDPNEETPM

Row | Structure (SMILES) | IC50 ([1]; Homo sapiens, Platelet) | IC50 [2] | IC50 [1]
1 | CNc1cc2c(cc1F)C(=O)N(c1ccc(C(=O)NC(CC(=O)O)c3ccc(Cl)s3)cc1)CO2 (stereo not drawn) [Compound 79, 3-(5-chlorothiophen-2-yl)-3-(4-(6-fluoro-7-(methylamino)-4-oxo-2H-benzo[e][1,3]oxazin-3(4H)-yl)benzamido)propanoic acid] | < 10000 nM | 50 to 500 nM | 
2 | CNc1cc2[nH]c(=O)n(-c3ccc(C(=O)N[C@H](c4noc(=O)[nH]4)c4ccc(Cl)s4)cc3)c(=O)c2cc1F [Compound 46, (R)-N-((5-chlorothiophen-2-yl)(5-oxo-4,5-dihydro-1,2,4-oxadiazol-3-yl)methyl)-4-(6-fluoro-7-(methylamino)-2,4-dioxo-1,2-dihydroquinazolin-3(4H)-yl)benzamide] | 10000 to 30000 nM | 50 to 500 nM | 
3 | CNc1cc2ccn(-c3ccc(CNC(C(=O)O)c4ccc(Cl)s4)cc3)c(=O)c2cc1F (stereo not drawn) [Compound 115, 2-(5-chlorothiophen-2-yl)-2-(4-(7-fluoro-6-(methylamino)-1-oxoisoquinolin-2(1H)-yl)benzylamino)acetic acid] | > 30000 nM | 50 to 500 nM | 
4 | CNc1cc2[nH]c(=O)n(-c3ccc(C(=O)NC(C(=O)O)c4ccc(Cl)s4)cc3)c(=O)c2cc1F (stereo not drawn) [Compound 5, 2-(5-chlorothiophen-2-yl)-2-(4-(6-fluoro-7-(methylamino)-2,4-dioxo-1,2-dihydroquinazolin-3(4H)-yl)benzamido)acetic acid] |  | < 50 nM | 10000 to 30000 nM
5 | CNc1cc2c(cc1F)C(=O)N(c1ccc(C(=O)NC(c3nnn[nH]3)c3ccc(Cl)s3)cc1)CO2 (stereo not drawn) [Compound 54, N-((5-chlorothiophen-2-yl)(1H-tetrazol-5-yl)methyl)-4-(6-fluoro-7-(methylamino)-4-oxo-2H-benzo[e][1,3]oxazin-3(4H)-yl)benzamide] | 10000 to 30000 nM | < 50 nM | 
6 | CNc1cc2[nH]c(=O)n(-c3ccc(C(=O)NC(C(=O)O)c4ccc(Cl)s4)c(C)c3)c(=O)c2cc1F (stereo not drawn) [Compound 41, 2-(5-chlorothiophen-2-yl)-2-(4-(6-fluoro-7-(methylamino)-2,4-dioxo-1,2-dihydroquinazolin-3(4H)-yl)-2-methylbenzamido)acetic acid] | 10000 to 30000 nM | 50 to 500 nM | 
7 | CNc1cc2c(cc1F)C(=O)N(c1ccc(C(=O)NC(c3ccc(Cl)s3)c3nccs3)cc1)CO2 (stereo not drawn) [Compound 82, N-((5-chlorothiophen-2-yl)(thiazol-2-yl)methyl)-4-(6-fluoro-7-(methylamino)-4-oxo-2H-benzo[e][1,3]oxazin-3(4H)-yl)benzamide] | > 30000 nM | 50 to 500 nM | 
8 | CNc1cc2c(cc1F)C(=O)N(c1ccc(C(=O)NC(c3nnn(C)n3)c3ccc(Cl)s3)cc1)CO2 (stereo not drawn) [Compound 74, N-((5-chlorothiophen-2-yl)(2-methyl-2H-tetrazol-5-yl)methyl)-4-(6-fluoro-7-(methylamino)-4-oxo-2H-benzo[e][1,3]oxazin-3(4H)-yl)benzamide] | > 30000 nM | 50 to 500 nM | 
9 | CNc1cc2c(=O)n(-c3ccc(C(=O)NC(c4noc(=O)[nH]4)c4ccc(Cl)s4)cc3)c(=O)[nH]c2cc1F (stereo not drawn) [Compound 50, N-((5-chlorothiophen-2-yl)(5-oxo-4,5-dihydro-1,2,4-oxadiazol-3-yl)methyl)-4-(7-fluoro-6-(methylamino)-2,4-dioxo-1,2-dihydroquinazolin-3(4H)-yl)benzamide] | > 30000 nM | 50 to 500 nM | 
10 | CNc1cc2[nH]c(=O)n(-c3ccc(C(=O)NC(c4nnn[nH]4)c4ccc(Cl)s4)cc3)c(=O)c2cc1F (stereo not drawn) [Compound 7, N-((5-chlorothiophen-2-yl)(1H-tetrazol-5yl)methyl)-4-(6-fluoro-7-(methylamino)-2,4-dioxo-1,2-dihydroquinazolin-3(4H)-yl)benzamide] | < 10000 nM | < 50 nM | 
11 | CNc1cc2[nH]c(=O)n(-c3ccc(C(=O)NC(C(N)=O)c4ccc(Cl)s4)cc3)c(=O)c2cc1F (stereo not drawn) [Compound 47, N-(2-amino-1-(5-chlorothiophen-2-yl)-2-oxoethyl)-4-(6-fluoro-7-(methylamino)-2,4-dioxo-1,2-dihydroquinazolin-3(4H)-yl)benzamide] | < 10000 nM | 50 to 500 nM | 
12 | CNc1cc2[nH]c(=O)n(-c3ccc(C(=O)NC(C(=O)O)c4ccc(Cl)s4)cc3)c(=O)c2cc1F (stereo not drawn) [Compound 13, 2-(5-chlorothiophen-2-yl)-2-(4-(6-fluoro-7-(methylamino)-2,4-dioxo-1,2-dihydroquinazolin-3(4H)-yl)benzamido)acetic acid] | < 10000 nM | 50 to 500 nM | 
